This note sets out measurements from PMC9655341 (Molecules, 2022).

Series [1] has as its target T1, human MT1 receptors (Homo sapiens, UniProt P48039).
T1 construct: expressed in transfected cells; host or cells: CHO (Chinese hamster ovary) cells, stably transfected
Nature of the series: Binding affinity at human MT1 receptors stably transfected in CHO cells, 2-[125I]iodomelatonin. The note with it: read-out: MT1 pKi (Mean ± SD) (converted).

Series [2] addresses T2, human MT2 receptors (Homo sapiens, UniProt P49286).
T2 construct: expressed in transfected cells; host or cells: CHO (Chinese hamster ovary) cells, stably transfected
T2 sequence (P49286 1-362): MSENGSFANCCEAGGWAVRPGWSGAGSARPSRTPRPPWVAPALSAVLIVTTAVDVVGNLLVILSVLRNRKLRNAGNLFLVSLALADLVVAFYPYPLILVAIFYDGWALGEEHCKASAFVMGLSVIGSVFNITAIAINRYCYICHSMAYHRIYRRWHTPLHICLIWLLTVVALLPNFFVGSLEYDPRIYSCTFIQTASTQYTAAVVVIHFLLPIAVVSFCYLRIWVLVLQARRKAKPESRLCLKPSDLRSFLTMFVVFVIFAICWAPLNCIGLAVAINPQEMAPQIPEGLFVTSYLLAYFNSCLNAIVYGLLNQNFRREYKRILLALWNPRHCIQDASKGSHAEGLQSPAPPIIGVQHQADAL
Put plainly: Intrinsic activity at human MT2 receptors stably transfected in CHO cells. Format: biochemical. The note with it: MT2, melatonin = 1.00.

The target in series [3] is T2, human MT2 receptors. Nature of the series: Binding affinity at human MT2 receptors stably transfected in CHO cells, 2-[125I]iodomelatonin. The following applies: read-out: MT2 pKi (Mean ± SD) (converted).
For series [4], the target named is T1, human MT1 receptors. Put plainly: Intrinsic activity at human MT1 receptors stably transfected in CHO cells. The format is biochemical. The note with it: MT1, melatonin = 1.00.
Series [5] addresses T3, human MT1 melatonin receptor (Homo sapiens, UniProt P48039).
T3 construct: expressed in transfected cells; host or cells: CHO (Chinese hamster ovary) cells, stably transfected
Nature of the series: Radioligand binding assay at human MT1 (MDS Pharma Services), 2-[125I]iodomelatonin. The following applies: for inhibition at 50 pM: MT1, concentration 0.05 nM; for inhibition at 0.001 µM: MT1, concentration 1 nM; for inhibition at 1 µM: MT1, concentration 1 µM.

In series [6] the target is T4, human MT2 melatonin receptor (Homo sapiens, UniProt P49286).
T4 construct: expressed in transfected cells; host or cells: CHO (Chinese hamster ovary) cells, stably transfected
T4 sequence (P49286 1-362): T2 sequence (P49286 1-362)
Nature of the series: Radioligand binding assay at human MT2 (MDS Pharma Services), 2-[125I]iodomelatonin. The note with it: for IC50 / Ki / nH (Hill coefficient): MT2; for inhibition at 50 pM: MT2, concentration 0.05 nM; for inhibition at 0.001 µM: MT2, concentration 1 nM; for inhibition at 1 µM: MT2, concentration 1 µM. The method, then: The newly synthesized indole derivatives were evaluated for their binding affinity and intrinsic activity at human MT1 and MT2 receptors stably transfected in Chinese hamster ovary (CHO) cells using 2-[^125I]iodomelatonin as a radioligand, and the results are shown in Table 5 and Table 6.

Series [7] in a line: Oxidation of 2,3-dihydroindoles in solution (NMR tube, storage in DMSO solution). The format is physicochemical. The text has this:
Despite stability in the solid phase, the obtained 2,3-dihydroindoles are sensitive to oxidation in solution. Thus, the oxidation in the NMR tube occurred both in spiro and 3H-containing indolines, but led to different types of products. […] The compounds 8i,l,g were also partially converted to aromatic indoles 9i,l,g during purification by column chromatography.
[formula] Scheme 10 Oxidative conversion of 2,3-dihydroindoles during storage in DMSO solution.

T3 sequence (P48039 whole entry): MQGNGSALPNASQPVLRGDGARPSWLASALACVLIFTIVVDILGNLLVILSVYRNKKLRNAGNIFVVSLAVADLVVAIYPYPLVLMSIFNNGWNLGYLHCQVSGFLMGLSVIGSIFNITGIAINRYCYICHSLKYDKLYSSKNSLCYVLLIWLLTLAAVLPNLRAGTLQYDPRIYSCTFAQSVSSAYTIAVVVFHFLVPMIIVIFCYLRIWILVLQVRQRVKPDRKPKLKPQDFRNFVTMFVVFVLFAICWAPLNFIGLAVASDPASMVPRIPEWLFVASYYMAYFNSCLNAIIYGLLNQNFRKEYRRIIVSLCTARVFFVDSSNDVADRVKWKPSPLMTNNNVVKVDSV
T1 sequence (P48039 whole entry): as above

As for `COc1ccc2c(c1)C(C)(CCNC(C)=O)CN2C` (stereo not drawn) [8e, N-[2-(1,3-Dimethyl-5-methoxy-2,3-dihydro-1H-indol-3-yl)ethyl]acetamide], the Ki at human MT1 receptors [1] was 58.9 nM; on human MT2 receptors [3], 195 nM. The “MT2 Intrinsic Activity” value at human MT2 receptors [2] was determined as 0.96 ± 0.07. Besides, on human MT1 receptors [4], the “MT1 Intrinsic Activity” value was determined as 0.94 ± 0.10.
For `COc1ccc2c(c1)C(CCNC(C)=O)CN2Cc1ccccc1` (stereo not drawn) [8h, N-[2-(1-Benzyl-5-methoxy-2,3-dihydro-1H-indol-3-yl)ethyl]acetamide], the Ki on human MT1 receptors [1] was 5.25 nM; at human MT2 receptors [3] it was 2.29 nM. Further, at human MT2 receptors [2], the “MT2 Intrinsic Activity” value was 0.85 ± 0.08. Besides, on human MT1 receptors [4], the “MT1 Intrinsic Activity” value turned out to be 1.04 ± 0.14.
Consider `CC(=O)NCCC1CN(C)c2c1ccc(C)c2C` (stereo not drawn) [8l, N-[2-(1,6,7-Trimethyl −2,3-dihydro-1H-indol-3-yl)ethyl]acetamide], for which the Ki at human MT1 receptors [1] is 251 nM; at human MT2 receptors [3] it was 166 nM. Moreover, the “MT2 Intrinsic Activity” value on human MT2 receptors [2] is on record as 0.83 ± 0.05. Also, the “MT1 Intrinsic Activity” value at human MT1 receptors [4] worked out at 0.61 ± 0.15.
What is called IC50 is the concentration that inhibits the measured activity by half. The low end stands for greater potency, the high end for weaker potency. The term inhibition denotes the share of the control response that was lost under treatment. Read a high inhibition as strong suppression. `COc1ccc2c(c1)C(CCNC(C)=O)C(=O)N2` (stereo not drawn) [7a, N-[2-(5-methoxy-2-oxo-2,3-dihydro-1H-indol-3-yl)ethyl]acetamide]: the IC50 in series [5] (MT1) is greater than 1000 nM. Further, in series [5], at 50 pM the inhibition was 4%, testing at 0.001 µM gave an inhibition of 3% and the inhibition at 1 µM was determined as 46%. Besides, in series [6], the IC50 stood at 268 nM, the Ki turned out to be 139 nM, the “nH (Hill coefficient)” value is given as 0.676 and the inhibition at 50 pM worked out at 4%. For the same compound, in series [6], testing at 0.001 µM gave an inhibition of 3% and at 1 µM the inhibition was 71%.
For `CC(=O)NCCC1(C)CN(Cc2ccccc2)c2ccccc21` (stereo not drawn) [8b, N-[2-(1-Benzyl-3-methyl-2,3-dihydro-1H-indol-3-yl)ethyl]acetamide], the Ki on human MT1 receptors [1] is 1740 nM; on human MT2 receptors [3] it was 72.4 nM. Also, the “MT2 Intrinsic Activity” value on human MT2 receptors [2] is recorded as 0.45 ± 0.04. In addition, the “MT1 Intrinsic Activity” value on human MT1 receptors [4] was determined as 0.33 ± 0.04.
As for `CC(=O)NCC1CC12CN(C)c1ccccc12` (stereo not drawn) [10a, N-{1′-Methyl-1′,2′-dihydrospiro[cyclopropan-1,3′-indol]-3-ylmethyl}acetamide], the “Stability to oxidation in solution” value in series [7] is reported as “oxidized to 2-oxindole”.
In the case of `COc1ccc2c(c1)C(C)(CCNC(C)=O)CN2Cc1ccccc1` (stereo not drawn) [8f, N-[2-(1-Benzyl-3-methyl-5-methoxy-2,3-dihydro-1H-indol-3-yl)ethyl]acetamide], the figures for the Ki on human MT1 receptors [1] and at human MT2 receptors [3] were 112 nM and 46.8 nM, respectively. For the same compound, on human MT2 receptors [2], the “MT2 Intrinsic Activity” value is recorded as 0.61 ± 0.03. For the same compound, the “MT1 Intrinsic Activity” value at human MT1 receptors [4] is 0.63 ± 0.14.
`CCC(=O)NC1Cc2ccccc2C(c2ccccc2)C1` (stereo not drawn) [4-P-PDOT, reference compound]: in series [6], the IC50 stood at 0.497 nM, the Ki amounted to 0.258 nM and the “nH (Hill coefficient)” value was 0.840.
Consider `COc1ccc2[nH]cc(CCNC(C)=O)c2c1` [Melatonin, 3-(2-(acetylamino)ethyl)-5-methoxyindole, reference compound], for which the “nH (Hill coefficient)” value in series [5] (MT1) is 0.774. On human MT1 receptors [4], the “MT1 Intrinsic Activity” value came out at 1.00 ± 0.03.
On to `CC(=O)NCCC1(C)CN(C)c2ccccc21` (stereo not drawn) [8a, N-[2-(1,3-Dimethyl-2,3-dihydro-1H-indol-3-yl)ethyl]acetamide], for which the Ki at human MT1 receptors [1] was 776 nM; at human MT2 receptors [3] it was 427 nM. For the same compound, the “MT2 Intrinsic Activity” value at human MT2 receptors [2] is given as 0.74 ± 0.07. In addition, the “MT1 Intrinsic Activity” value on human MT1 receptors [4] worked out at 0.47 ± 0.10.
For the compound `CC(=O)NCCC1CN(Cc2ccccc2)c2ccccc21` (stereo not drawn) [8m, N-[2-(1-Benzyl-2,3-dihydro-1H-indol-3-yl)ethyl]acetamide], the “Stability to oxidation in solution” value in series [7] was “aromatization of the indole ring occurred”.
On to `COc1ccc2[nH]c(Cl)c(CCNC(C)=O)c2c1` [7d, 2-chloromelatonin], for which, in series [5] (MT1), the IC50 was determined as 0.138 nM, the Ki is 0.0716 nM and the “nH (Hill coefficient)” value is recorded as 0.925. In series [5], this compound yielded an inhibition at 50 pM of 28%, an inhibition at 0.001 µM of 86% and an inhibition at 1 µM of 100%. The “MT1 receptor binding activity compared with melatonin” value in series [5] (MT1, in words) is “more active than melatonin”. In addition, in series [6], the IC50 is 0.338 nM, the Ki amounted to 0.176 nM, the “nH (Hill coefficient)” value was 1.01 and the inhibition at 50 pM came to 13%. In addition, in series [6], testing at 0.001 µM gave an inhibition of 75% and the inhibition at 1 µM stood at 98%.
